Experimental findings from US20090076012A1, “Modulation of pathogenicity” (priority 2002, published 2009) are described below.

Each structure is given as a SMILES string.

For one assay, the system named is bioluminescent sensor strain Escherichia coli MT102 (pSB403). The assay can be described thus: Biosensor assay: quorum sensing inhibition, bioluminescence of the sensor strain. The format is cell-based. The conditions noted are these: 3oxo-C6-HSL 100 nM; bioluminescence after 4 hours at 30° C.; read-out: IC50. The procedure:
Quorum sensing inhibition of the compounds was investigated with the aid of the bioluminescent sensor strain Escherichia coli MT102 (pSB403) (Winson et al., FEMS Microbiol. Lett. 163:185-92, 1998). Plasmid pSB403 contains the Photobacterium fischeri luxR gene together with the […] promoter region as a transcriptional fusion to the bioluminescence genes luxCDABE of Photorhabdus luminescence.
Inhibitory studies were conducted in a microtitre dish assay as follows: the E. coli sensor strain grown over night in LB medium (Sambrook et al., Molecular Cloning: A Laboratory Manual. 2nd Edn. Cold Spring Harbor Laboratory, New York, 1989) was diluted 1:4 and grown for another 1 hour at 30° C. After addition of 3oxo-C6-HSL (final concentration 100 nM) 100 μl of an exponential culture suspension were filled in the wells of a FluoroNunc Polysorp microtitre dish. The test compounds were added to the culture in different concentrations and bioluminescence was measured after 4 hours of incubation at 30° C. with a Lamda Fluoro 320 Plus reader (Bio-Tek Instruments). Inhibitor-mediated reduction of light emission was correlated with the value obtained without addition of the test compounds. IC50 values (concentration of inhibitor required for 50% inhibition of the signal compared to the signal without inhibitor) were determined by using a fitting function after drawing a graph of the activities of eight different inhibitor concentrations.
What is called IC50 is the midpoint of a concentration-inhibition curve. For the compound `CCCCCCCCCC(=O)CC(=O)Nc1sccc1C(=O)OC` [Compound 122, Z(3-Oxo-dodecanoylamino)-thiophene-3-carboxylic acid methyl ester], the IC50 was greater than 100 µM.

Still in this assay, the particulars now being: Escherichia coli, 4 h, 3oxo-C6-HSL 100 nM; bioluminescence after 4 hours at 30° C.
In the case of `CCCCCCCCCC(=O)CC(=O)Nc1oc(C)c(C)c1C#N` [Compound 137, 3-Oxododecanoic acid (3-cyano-4,5-dimethyl-furan-2-yl)-amide], the IC50 is greater than 100 µM.

For `O=C(NNC(=O)c1cccs1)c1ccco1` [Compound 35, Furan-2-carboxylic acid N′-(thiophene-2-carbonyl)-hydrazide], the IC50 is 50 to 100 µM.

Compound `CCOC(=O)CC(=O)NNC(=O)c1sccc1Br` [Compound 95] displayed an IC50 of 1 to 50 µM.

Take `CSc1ccc(NC(=O)NNC(=O)c2scc(C)c2Cl)cc1` [Compound 105, 1-(3-Chloro-4-methyl-thiophene-2-carbonyl)-4-(4-methylsulfanyl-phenyl)-semicarbazide]: the IC50 lay within 1 to 50 µM.

Consider `CCCC(=O)NNC(=O)c1cccs1` [Compound 75, Thiophene-2-carboxylic acid N′-butyryl-hydrazide], for which the IC50 was in the range of 1 to 50 µM.

On to `Cc1nn(C)c2ncc(C(=O)NNC(=O)c3cccs3)c(Cl)c12` [Compound 63], for which the IC50 is greater than 100 µM.

`CCCCCCCCCC(=O)CC(=O)Nc1nccs1` [Compound 128, 3-Oxo-dodecanoic acid thiazol-2-ylamide] displayed an IC50 greater than 100 µM.

`CCCCCCC(=O)NNC(=O)c1ccc(C)s1` [Compound 83, 5-Methyl-thiophene-2-carboxylic acid N′-heptanoyl-hydrazide]: the IC50 lay within 1 to 50 µM.

Take `COc1c(C(=O)NNC(=O)c2cccs2)csc1Cl` [Compound 50, 5-Chloro-4-methoxy-thiophene-3-carboxylic acid N′-(thiophene-2-carbonyl)-hydrazide]: the IC50 fell in the range of 50 to 100 µM.

`CCCCCCC(=O)NNC(=O)c1ccco1` [Compound 89, Furan-2-carboxylic acid N′-heptanoyl-hydrazide] yielded an IC50 of 1 to 50 µM.

On to `Cn1nccc1NC(=O)CCCCCBr` [Compound 22, 6-Bromo-hexanoic acid (2-methyl-2H-pyrazole-3-yl)-amide], for which the IC50 lay within 1 to 50 µM.

`O=C(NNC(=O)c1sccc1Cl)c1sccc1Cl` [Compound 49, 3-Chloro-thiophene-2-carboxylic acid N′-(3-chloro-thiophene-2-carbonyl)-hydrazide]: the IC50 was in the range of 50 to 100 µM.

In the case of `Cc1csc(C(=O)NNC(=O)c2ccco2)c1Cl` [Compound 36, Furan-2-carboxylic acid N′-(3-chloro-4-methyl-thiophene-2-carbonyl)-hydrazide], the half-inhibitory concentration (IC50) was in the range of 50 to 100 µM.

Take `CCCCCCCCCC(=O)CC(=O)Nc1scc(C)c1C(=O)OCC` [Compound 124, 4-Methyl-2-(3-oxo-dodecanoylamino)-thiophene-3-carboxylic acid ethyl ester]: the half-inhibitory concentration (IC50) was greater than 100 µM.

As to `CCCCCCC(=O)CC(=O)Nc1oc(C)c(C)c1C#N` [Compound 136, 3-Oxo-nonanoic acid (3-cyano-4,5-dimethyl-furan-2-yl)-amide], the IC50 is greater than 100 µM.

For `O=C(Nc1cccc(C(F)(F)F)c1)c1cnc(Cl)nc1C(F)(F)F` [Compound 6, 2-Chloro-4-trifluoromethyl-pyrimidine-5-carboxylic acid (3-trifluoromethyl-phenyl)-amide], the IC50 was 50 to 100 µM.

`CCCCCCCCCC(=O)CC(=O)Nc1cc(C)nn1C` [Compound 119, 3-Oxo-dodecanoic acid (2,5-dimethyl-2H-pyrazol-3-yl)-amide]: the IC50 was greater than 100 µM.

In turn, `CCn1nc(C)c(Br)c1C(=O)NNC(=O)c1cc(Br)c(Br)s1` [Compound 74, 4-Bromo-2-ethyl-5-methyl-2H-pyrazole-3-carboxylic acid N′-(4,5-di-bromo-thiophene-2-carbonyl)-hydrazide] had an IC50 greater than 100 µM.

In turn, `CCCCCCC(=O)CC(=O)Nc1nccs1` [Compound 127, 3-Oxo-nonanoic acid thiazol-2-ylamide] registered an IC50 greater than 100 µM.

Turning to `CCCCCCC(=O)CC(=O)Nc1cc(C)no1` [Compound 132, 3-Oxo-nonanoic acid (3-methyl-isoxazol-5-yl)-amide], the IC50 is greater than 100 µM.

Regarding `CCCCCCC(=O)CC(=O)Nn1cccn1` [Compound 120, 3-Oxo-nonanoic acid pyrazol-1-ylamide], the IC50 was greater than 100 µM.

As for `O=C(NNC(=O)c1cc(Cl)sc1Cl)c1ccco1` [Compound 40, Furan-2-carboxylic acid N′-(2,5-dichloro-thiophene-3-carbonyl)-hydrazide], the IC50 is 1 to 50 µM.

In turn, `CCCCCCCCCC(=O)CC(=O)Nc1ccon1` [Compound 131, 3-Oxo-dodecanoic acid isoxazol-3-ylamide] displayed an IC50 greater than 100 µM.

`CCCCCCC(=O)Nc1cc(-c2ccccc2)nn1C` [Compound 17, Heptanoic acid (2-methyl-5-phenyl-2H-pyrazol-3-yl)-amide] came in with a concentration for half-maximal inhibition (IC50) of 1 to 50 µM.

`Cc1csc(C(=O)NNC(=O)CCCCCBr)c1Cl` [Compound 80, 3-Chloro-4-methyl-thiophene-2-carboxylic acid N′-(6-bromo-hexanoyl)-hydrazide] had an IC50 of 1 to 50 µM.

Compound `O=C(NNC(=O)c1ccc(Br)s1)Nc1ccc(F)cc1C(F)(F)F` [Compound 102, 1-(5-Bromo-thiophene-2-carbonyl)-4-(4-fluoro-2-trifluoromethyl-phenyl)-semicarbazide] showed an IC50 greater than 100 µM.

Consider `COc1ccc(NC(=O)NNC(=O)c2ccc(Br)s2)cc1` [Compound 109, 1-(5-Bromo-thiophene-2-carbonyl)-4-(4-methoxy-phenyl)-semicarbazide], for which the IC50 was greater than 100 µM.

`CCCCNC(=S)NNC(=O)c1cccs1` [Compound 100, 4-Butyl-1-(thiophene-2-carbonyl)-thiosemicarbazide] displayed an IC50 of 1 to 50 µM.

Compound `CCOC(=O)CC(=O)NNC(=O)c1cc2ccccc2s1` [Compound 96, 3-[N′-(Benzo[b]thiophene-2-carbonyl)-hydrazino]-3-oxo-propionic acid ethyl ester] had an IC50 of 50 to 100 µM.

`O=C(NNC(=O)c1cccs1)c1cccc(Cl)c1` [Compound 31, 3-Chloro-benzoic acid N′-(thiophene-2-carbonyl)-hydrazide] came in with an IC50 of 50 to 100 µM.

Turning to `Cn1nc(-c2cccs2)cc1NC(=O)CCCCCBr` [Compound 20, 6-Bromo-hexanoic acid (2-methyl-5-thiophen-2-yl-2H-pyrazol-3-yl)-amide], the IC50 lay within 1 to 50 µM.

Take `CCCCCCC(=O)Nc1c(Br)cnn1C` [Compound 21]: the IC50 was 1 to 50 µM.

`Cn1nc(-c2ccccc2)cc1NC(=O)CCCCCBr` [Compound 18, 6-Bromo-hexanoic acid (2-methyl-5-phenyl-2H-pyrazol-3-yl)-amide] came in with an IC50 of 1 to 50 µM.

Turning to `CCCCCCC(=O)CC(=O)Nc1ccon1` [Compound 130, 3-Oxo-nonanoic acid isoxazol-3-ylamide], the concentration for half-maximal inhibition (IC50) was greater than 100 µM.

On to `Cc1c(C(=O)NNC(=O)c2cccs2)[n+]([O-])c2ccccc2[n+]1[O-]` [Compound 32, N′-(3-Methyl-1,4dioxy-quinoxaline-2-carbonyl)-thiophene-2-carboxylic acid hydrazide], for which the IC50 was in the range of 50 to 100 µM.

Turning to `COc1ccc(NC(=O)c2cncc(Br)c2)cn1` [Compound 9, 5-Bromo-N-(6-methoxy-pyridin-3-yl)-nicotinamide], the IC50 was greater than 100 µM.

Turning to `Cn1ncc(Br)c1NC(=O)CCCCCBr` [Compound 23, 6-Bromo-hexanoic acid (4-bromo-2-methyl-2H-pyrazol-3-yl)-amide], the 50% inhibitory concentration (IC50) was in the range of 1 to 50 µM.

With `O=C(NNC(=O)c1cc(Br)c(Br)s1)Nc1ccc(Cl)c(C(F)(F)F)c1` [Compound 103, 4-(4-Chloro-3-trifluoromethyl-phenyl)-1-(4,5-dibromo-thiophene-2-carbonyl)-semicarbazide], the IC50 was 50 to 100 µM.

`O=C(NNC(=O)c1sccc1Br)c1ccc(Cl)s1` [Compound 48] yielded an IC50 of 50 to 100 µM.

The compound `O=C(Nc1cccnc1)c1cc(Cl)sc1Cl` [Compound 3, 2,5-Dichloro-thio-phene-3-carboxylic acid pyridin-3-ylamide] yielded a half-inhibitory concentration (IC50) of 1 to 50 µM.

`CCCCCCC(=O)CC(=O)Nc1ccnn1CC` [Compound 116, 3-Oxo-nonanoic acid (2-ethyl-2H-pyrazol-3-yl)-amide] gave an IC50 greater than 100 µM.

The compound `CCCCCCCC(=O)NNC(=O)c1c(Br)c(C)nn1CC` [Compound 92, 4-Bromo-2-ethyl-5-methyl-2H-pyrazole-3-carboxylic acid N′-octanoyl-hydrazide] displayed an IC50 of 50 to 100 µM.

Consider `O=C(NNC(=O)c1ccc(Cl)s1)Nc1ccccc1CCl` [Compound 108, 4(2-Chloro-methyl-phenyl)-1-(5-chloro-thiophene-2-carbonyl)-semicarbazide], for which the IC50 was 1 to 50 µM.

Compound `CCCCCCCC(=O)NNC(=O)c1sccc1Br` [Compound 85, 3-Bromo-thiophene-2carboxylic acid N′-octanoyl-hydrazide] displayed an IC50 of 1 to 50 µM.

In turn, `CCCCCCC(=O)CC(=O)Nc1sccc1C(=O)OC` [Compound 121, 2-(3-Oxo-nonanoylamino)-thiophene-3-carboxylic acid methyl ester] returned an IC50 greater than 100 µM.

The compound `CCCCCCC(=O)NNS(=O)(=O)c1ccc(Cl)s1` [Compound 99, N′-(5-Chloro-thiophen-2-sulfonyl)-heptanoic acid hydrazide] registered a 50% inhibitory concentration (IC50) greater than 100 µM.
